Source: patent US20260265175A1, “METHOD FOR OBTAINING ORGANIC ACIDS FROM AN AQUEOUS MOTHER LIQUOR” (Covestro Deutschland AG, priority 2022, published 2026)

Key:
[1] = Precipitation of 2-aminobenzoic acid (oAB) from aqueous solution as metal compound; residual oAB in supernatant by HPLC; assay type: physicochemical; settings: value is the detection limit
Text: The pH was adjusted to about 3.5 with a 1M NaOH solution (corresponding to the isoelectric point of oAB). […] The solid (Cu(oAB)2, Fe(oAB)2 and/or Mn(oAB)2) was separated from the liquid phase by centrifugation.

[2] = Cu(OH)2 roughly stoichiometric, pH 4.5, starting solution 12 g/L

| Structure (SMILES) | oAB concentration in aqueous supernatant after precipitation of the metal compound of the organic acid (sample A) ([1]; CuSO4, FeSO4 or MnSO4, metal salt:oAB 1:2, pH about 3.5, room temperature, starting solution 5 g/L) | oAB concentration in liquid phase after precipitation with recycled metal hydroxide (sample C) ([1]; after addition both of Fe(OH)2 and Cu(OH)2, pH 3.5, starting solution 5 g/L) | adipic acid concentration in liquid phase after precipitation with recycled Cu(OH)2 (sample C) [2] |
| --- | --- | --- | --- |
| Nc1ccccc1C(=O)O [oAB, 2-Aminobenzoic acid] | < 0.05 goAB/L | < 0.05 goAB/L | – |
| O=C(O)CCCCC(=O)O [adipic acid, Adipic acid] | – | – | 3 g/L |
